Data: article PMC3506129 (Journal of Medicinal Chemistry, 2012)
Like-named read-outs stand apart in the source and are kept apart here. Marks after values point to notes of the source that are not given here.

Columns and labels:
CHK2 = CHK2 (Homo sapiens, UniProt O96017); test: CHK2 DELFIA kinase assay; type: biochemical; settings: data not shown
CDK1 = CDK1 (Homo sapiens, UniProt P06493); settings: data not shown
CaCo-2 permeability = type: in vitro ADME; settings: human
[1] = system: CHK1 S296 autophosphorylation in SW620 human colon cancer xenografts; test: Gemcitabine-induced CHK1 phosphorylation in SW620 xenografts; type: in vivo, mouse; settings: single po dose at MTD (20: 160, 26: 300 mg/kg); 12 h after gemcitabine
[2] = Plasma and tumor drug levels in SW620 xenograft-bearing mice; type: in vivo, mouse; settings: po dose at MTD
[3] = system: SW620 human colon cancer xenograft; settings: SW620, q4d × 3, gemcitabine 100 mg/kg iv + 26 75 mg/kg po; cited from earlier work
121 kinases = settings: against 89 out of the 121 enzymes, screen at 10 μM
[4] = system: Calu6 human non-small cell lung cancer xenograft; settings: Calu6, q7d × 3, gemcitabine 100 mg/kg iv + 26 75 mg/kg po; cited from earlier work
[5] = system: pS296 CHK1 in HT29 colon tumor xenografts; settings: single doses 100–300 mg/kg po; cited from earlier work
[6] = system: panel of 140 representative kinases; test: Radiometric kinase panel summary, 1 μM; type: biochemical, human; settings: of 140 kinases
AMPK = test: radiometric kinase profiling; type: biochemical; settings: 1 μM
[7] = system: HT29 human colon cancer xenograft; settings: cited from earlier work; for tumor growth delay (days), 26: HT29, q7d × 3, 26 75 mg/kg po alone
[8] = 10 mg/kg iv, 6 h, 9 normalized from 5 mg/kg, 24 from 1 mg/kg, 20 from full PK

Sequence of CHK2 (O96017 whole entry, species assumed): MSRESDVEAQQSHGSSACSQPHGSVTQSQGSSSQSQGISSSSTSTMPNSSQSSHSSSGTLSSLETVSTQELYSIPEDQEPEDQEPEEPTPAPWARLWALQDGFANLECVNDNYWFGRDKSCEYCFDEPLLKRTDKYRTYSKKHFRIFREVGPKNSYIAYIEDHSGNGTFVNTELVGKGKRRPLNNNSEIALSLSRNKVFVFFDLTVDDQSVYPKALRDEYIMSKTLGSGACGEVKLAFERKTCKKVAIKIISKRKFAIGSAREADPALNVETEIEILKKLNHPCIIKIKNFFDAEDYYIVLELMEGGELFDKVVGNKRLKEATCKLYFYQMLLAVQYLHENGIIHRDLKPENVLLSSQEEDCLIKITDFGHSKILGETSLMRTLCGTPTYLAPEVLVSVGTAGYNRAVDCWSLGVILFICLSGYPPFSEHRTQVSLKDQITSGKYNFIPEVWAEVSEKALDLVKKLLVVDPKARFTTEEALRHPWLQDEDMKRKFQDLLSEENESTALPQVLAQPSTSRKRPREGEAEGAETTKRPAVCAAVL
Sequence of CDK1 (P06493 whole entry, looked up): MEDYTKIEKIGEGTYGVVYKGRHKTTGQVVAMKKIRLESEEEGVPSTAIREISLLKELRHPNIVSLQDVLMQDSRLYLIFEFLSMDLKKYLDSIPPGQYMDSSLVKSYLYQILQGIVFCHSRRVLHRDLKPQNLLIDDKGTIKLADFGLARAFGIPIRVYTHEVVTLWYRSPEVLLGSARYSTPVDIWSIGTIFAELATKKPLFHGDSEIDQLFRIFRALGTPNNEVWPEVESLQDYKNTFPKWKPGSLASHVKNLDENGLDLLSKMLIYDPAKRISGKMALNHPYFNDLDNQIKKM

COC(=O)c1cnc(Nc2cnc(C#N)c(O[C@@H]3CCNC3)n2)cc1N(C)C [Compound 10]
selectivity for CHK1 inhibition over CHK2 (CHK2): greater than 100 fold
selectivity for CHK1 inhibition over CDK1 (CDK1): greater than 100 fold

CNc1cc(Nc2cnc(C#N)c(O[C@H](C)CN(C)C)n2)ncc1C(F)(F)F [Compound 15]
efflux ratio (CaCo-2 permeability): > 6

CNc1cc(Nc2cnc(C#N)c(O[C@H](C)CN(C)C)n2)ncc1-c1cnn(C)c1 [Compound 20, (R)-3-((1-(Dimethylamino)propan-2-yl)oxy)-5-((5-(1-methyl-1H-pyrazol-4-yl)-4-(methylamino)pyridin-2-yl)amino)pyrazine-2-carbonitrile]
inhibition of CHK1 S296 autophosphorylation, 12 h [1]: less powerful effect
fall in drug concentration between 6 and 12 h [2]: ca. 20 fold
mouse plasma level iv, 1 h (10 mg/kg iv, 1 h, 9 normalized from 5 mg/kg, 24 from 1 mg/kg, 20 from full PK): 910 (±23) ^h nM
mouse plasma level iv, 6 h [8]: 45 (±10) ^h nM
mouse plasma level po, 1 h (10 mg/kg po, 1 h): 555 (±82) ^h nM
mouse plasma level po, 6 h (10 mg/kg po, 6 h): 57 (±7) ^h nM

CNc1cc(Nc2cnc(C#N)c(O[C@@H]3CCN(C)C3)n2)ncc1-c1cnn(C)c1 [Compound 24]
mouse plasma level iv, 6 h [8]: <20 ^i, ^j nM

COc1cc(Nc2cnc(C#N)c(O[C@H](C)CN(C)C)n2)ncc1-c1cnn(C)c1 [Compound 26, (R)-3-((1-(Dimethylamino)propan-2-yl)oxy)-5-((4-methoxy-5-(1-methyl-1H-pyrazol-4-yl)pyridin-2-yl)amino)pyrazine-2-carbonitrile]
tumor growth delay (days), combination [3]: 6.0 (±2.4) days
inhibition of CHK1 S296 autophosphorylation, 12 h [1]: robust inhibition
fall in drug concentration between 6 and 12 h [2]: 2–3 fold
selectivity for CHK1 (121 kinases): > 1000 fold
enhancement in plasma levels at the 1 h time point relative to 20 (10 mg/kg, 1 h): 2 fold
tumor growth delay (days), combination [4]: 15.9 (±2.5) days
duration of inhibition of gemcitabine-induced pS296 CHK1 [5]: up to 24 h
number of enzymes strongly inhibited (>80%) [6]: 7
inhibition (strongly inhibited) (AMPK): > 80%
tumor growth delay (days), 26 ([7]; gemcitabine experiment): –1.8 (±2.1) days
tumor growth delay (days), 26 ([7]; irinotecan experiment): 0.30 (±1.4) days
tumor growth delay (days), combination ([7]; HT29, q7d × 3, gemcitabine 100 mg/kg iv + 26 75 mg/kg po at 24 and 48 h): 11.4 (±3.3) days
tumor growth delay (days), combination ([7]; HT29, q7d × 3, irinotecan 12.5 mg/kg i.p. + 26 75 mg/kg po): 13.5 (±2.4) days
